Where “and” joins values, the source holds several entries; their conditions need not be identical. Equal entries are not always repeated. Where two headings read alike, the source gives them in different places.
Assays:
[1] = test system: nitric oxide (NO) production by BAL macrophages; format: in vivo, Brown Norway rats; details: compared to asthmatic and naïve rats, p<0.001; macrophages cultured without further treatment
[2] = test system: rats with endotoxin-induced sepsis; assay: Rat survival in LPS-induced endotoxinemia; format: in vivo; details: 100 mg/kg 3 hours before LPS (15 mg/kg i.p.) and 50 mg/kg with LPS; 48 hours
Procedure: Endotoxins administered to animals produce cardiovascular and multiorgan disorders that are similar to clinical sepsis. Thus, in the present study, a rat model was developed to test possible Lipid-conjugate effects on mediator production and mortality in endotoxin-induced Sepsis. Rats were intraperitoneally (i.p.) or intravenously (i.v.) injected with a Lipid-conjugate (Compound XXII, 100 mg/kg) dissolved in sterile saline or with sterile saline alone as placebo. After 3 hours, all rats received LPS (15 mg/kg i.p.; Escherichia coli 111:B44 LPS, Sigma, Deisenhofen, Germany). In rats that were pretreated with Compound XXII, LPS was injected together with a second dose of Compound XXII (50 mg/kg). The effect of Compound XXII on LPS injected rats was observed over a time period of 48 hours.

mice = assay: Long-term (30 weeks) toxicity test; format: in vivo
Procedure: For the long-term toxicity test a group of 6 mice received an i.p injection of 100 mg Lipid-conjugate (Compound XXII)/kg body weight 3 times a week for 30 weeks (e.g., 180 mg total to a mouse weighing 20 g). Toxicity was evaluated as for Table 8.1. The results of the long-term toxicity test are depicted in Table 8.2.

[3] = test system: cysteinyl leukotrienes (LTC4, LTD4 and LTE4); assay: Cysteinyl leukotriene level in BAL of OVA-induced asthmatic rats
Punta Toro virus [4] = format: cell-based, strain Adames
Punta Toro virus [5] = format: cell-based, strain Adames; remark: listed apart in the source
[6] = test system: Respiratory syncytial virus; format: cell-based, strain A2
[7] = test system: Respiratory syncytial virus; format: cell-based, strain A2; remark: listed apart in the source
[8] = test system: Influenza A (H1N1 strain) virus; format: cell-based, Influenza type A, A/New Caledonia/20/99 (H1N1)
[9] = test system: Influenza A (H3N2 strain) virus; format: cell-based, Influenza type A, A/Panama/2007/99 (H3N2)
Influenza B virus [10] = format: cell-based, Influenza type B, B/Hong Kong/330/02; details: high concentration; Visual Observation Assay; Influenza B
Influenza B virus [11] = format: cell-based, Influenza type B, B/Hong Kong/330/02; details: high concentration, Neutral Red Uptake Assay
[12] = test system: Madin Darby canine kidney (MDCK) cells; format: cell-based; details: high concentration, Neutral Red Uptake Assay
[13] = test system: Guinea pig tracheal rings; assay: Inhibition of tracheal ring contraction; details: stimulant Histamine (20 μM); Lipid-conjugate 15 μM
Procedure: A muscle preparation (tracheal rings) was isolated from rats (Experiments 3.1-3.3) and from guinea pigs (Experiments 3.4-3.5). Muscle contraction was measured by attachment of the muscle to a pressure transducer, which works much like a spring. Administration of asthmatogenic substances such as endothelin-1 (ET) and acetylcholine (AcCh) induces muscle contraction. Endothelins are released upon vascular endothelial injury, and they activate macrophages and act as strong chemo-attractants for circulating monocytes. Endothelins affect vascular smooth muscle fibroblast proliferation; help regulate vascular, airway, and intestinal smooth muscle tone; increase the activity of bone alkaline phosphatase; stimulate release of atrial natriuretic peptide (ANP) from atrial cardiocytes; inhibit the release of renin from glomeruli and modulate norepinephrine at sympathetic nerve termini. Opposing vasomotor effects are regulated through the binding of distinct endothelin receptors for vasoconstriction and vasodilation. Endothelins have been linked to atherosclerosis and various cardiovascular disease states. ET-1 is important in congestive heart failure, renal failure, pulmonary hypertension, hyperlipidemia and metastatic prostate cancer. On the other hand, AcCh is one of the three main receptors on the bronchi of the lungs, which are basically tubes with muscular walls. Stimulation of bronchial AcCh receptor induces muscle contraction and decreased airflow through the bronchi. Thus, ET and AcCh were used to experimentally induce muscle contraction in the lungs as a model of obstructive respiratory disorders.
Experiment 3.4: Guinea pig tracheal rings (in a linear array), immersed in a ringer bath, were connected to an apparatus measuring the length of the ring chain. […] Human airways have both Histamine (H)-1 and H2 receptors. H1 receptors, which mediate bronchoconstriction, predominate. Histamine application in experimental models produces signs and symptoms of asthma, such as narrowing of the airways, mucus secretion, wheezing, and coughing.

Human RBC = assay: Prevention of hemolysis of human red blood cells; format: cell-based; details: 20 min, 10 μM Lipid-conjugate, None = 1.000
Procedure: Hemolysis, the breakdown of red blood cells (RBC), may be either a primary disease in itself, or a syndrome associated with another disease or physiological insult. In order to determine the effect of Lipid-conjugates on hemolysis, red blood cells were incubated in the presence of known membrane destabilizing agents and the release of hemoglobulin into the extracellular medium was detected.
Human RBC were washed in saline and suspended in Hanks buffer (pH 7.4). Hemolysis was induced in the absence or presence of 10 μM Lipid-conjugates by treatment with either 5 U/ml streptolysin O (SLO), 25 U/ml streptolysin S (SLS), or 5 μg/ml lysophosphatidylcholine (lyso-PC) for 20 min. The cell membranes were spun and the hemoglobin content in the supernatant was determined by measuring the O.D. at 540 nm (Table 5.1).

[14] = 100 mg/kg i.p. 3 times/week for 30 weeks

## dipalmitoyl-PE conjugated to HA [Compound XXII]
[1]
  NO level, BAL macrophages: reduced
[2]
  mortality rate among septic rats: markedly reduced the mortality rate
mice; 100 mg/kg i.p. 3 times a week for 30 weeks
  mortality: no incidents of mortality
mice; 100 mg/kg i.p. 3 times a week for 30 weeks, compared to control, untreated mice
  changes in body weight, red or white blood cell count, or hematocrit: no significant changes
mice; [14]
  Body weight (g) Final: 39.0 ± 2.7 g
  Hematocrit %: 43.4 ± 4.9%
  RBC × 10^6: 11.7 ± 0.7 × 10^6
  WBC × 10^3: 8.1 ± 15 × 10^3
[3]; SC administration, compared with Naive rats
  CysLT levels in BAL: no significant difference
[3]; aerosol inhalation, compared with Naïve rats, P<0.01 vs Asthmatic
  CysLT levels in BAL: no significant difference

## dipalmitoyl-phosphatidyl-ethanolamine conjugated to heparin [Compound XXIV]
Punta Toro virus [4]
  SI (IC50/EC50): 0
Punta Toro virus [4]; low concentrations, Visual Observation Assay, Punta Toro A
  EC50: >100 µg/mL
Punta Toro virus [4]; lower range of doses, at the concentrations tested
  virus inhibitory effect against Punta Toro virus: did not display a virus inhibitory effect
Punta Toro virus [5]
  SI (IC50/EC50): 0
Punta Toro virus [5]; low concentrations, Neutral Red Uptake Assay, Punta Toro A
  EC50: >100 µg/mL
[6]
  EC50: 4 µg/mL
[7]; low concentrations, Neutral Red Uptake Assay, Respiratory Syncytial A
  EC50: >100 µg/mL
[7]; lower range of doses
  activity vs RSV by neutral red assay: not active
[8]
  SI (IC50/EC50): 20 and 11
[8]; high concentration, Visual Observation Assay, Influenza A (H1N1 strain)
  EC50: 400 µg/mL
[9]
  SI (IC50/EC50): 2.9 and 2
[9]; high concentration, Visual Observation Assay, Influenza A (H3N2 strain)
  EC50: 200 µg/mL
Influenza B virus [10]
  EC50: 350 µg/mL
Influenza B virus [11]
  EC50: 450 µg/mL
[12]; listed as Influenza A (H1N1 strain)
  IC50: 64 µg/mL
[12]; listed as Influenza A (H3N2 strain)
  IC50: 110 µg/mL
[12]; listed as Influenza B
  IC50: 220 µg/mL
[13]
  % Inhibition of tracheal ring contraction: 56 ± 0.05%
Human RBC; 5 μg/ml lysophosphatidylcholine
  HEMOLYSIS (O.D. AT 540 nm), Lyso-PC: 0.002 O.D.
Human RBC; 5 U/ml streptolysin O
  HEMOLYSIS (O.D. AT 540 nm), SLO: 0.002 O.D.
Human RBC; 25 U/ml streptolysin S
  HEMOLYSIS (O.D. AT 540 nm), SLS: 1.100 O.D.

Source: patent US7504384B2 (priority 2000, dated 2009)
